{"source": "paper PMC6008299", "about": "“Impact of race on dose selection of molecular-targeted agents in early-phase oncology trials” (British Journal of Cancer, 2018)", "key": {"[1]": {"test_system": "CYP2C8, CYP3A4, and CYP3A5", "design": "method as in printed", "details": "stated in discussion, ref not given; cited from earlier work"}, "advanced solid tumours": {"test_system": "advanced solid tumours", "assay": "Tumour assessment RECIST 1.1, Japanese study", "type": "in vivo, human", "details": "Japan; of 25 patients", "description": "(§1) In both studies, the PK profile of DS-7423 was characterised during cycle 1 on days 1 and 8. For PD analysis, glucose, C-peptide, and Akt phosphorylation were measured in platelet-rich plasma collected at predose, 1, 2, 4, 6, and 24 h after dosing on days 1 and 15. Tumour assessment was performed every two cycles using Response Evaluation Criteria in Solid Tumours (RECIST) version 1.1 in both studies. 18F-Fluoro-2-deoxy-D-glucose positron emission tomography ([18F]-FDG) was performed as an exploratory endpoint at baseline and on day 4.[10]"}, "glucose": {"test_system": "glucose", "assay": "Pharmacodynamics: glucose after dosing", "type": "in vivo, human", "details": "decreased toward baseline at 24 h", "description": "as §1"}, "Akt phosphorylation": {"test_system": "Akt phosphorylation", "assay": "Pharmacodynamics: Akt phosphorylation in platelet-rich plasma", "type": "in vivo, human", "details": "pre-treatment vs post-treatment, 32 patients", "description": "as §1"}, "tumour [18F]-FDG uptake": {"test_system": "tumour [18F]-FDG uptake", "assay": "[18F]-FDG-PET metabolic response, US (Caucasian) patients", "type": "in vivo, human", "details": "day 4", "description": "as §1"}, "[2]": {"assay": "Pharmacokinetics in Japanese cohort (J102)", "type": "in vivo, human", "description": "as §1\nThe data cut-off for the primary analysis occurred after all patients had either discontinued the study or completed 6 months of study drug treatment. Descriptive statistics were provided for selected demographic, safety, PK, and PD data by dose and time as appropriate. Descriptive statistics on continuous data included means, medians, standard deviations, and ranges, while categorical data were summarised using frequency counts and percentages. No inferential analysis to compare dose levels was performed due to limited sample sizes. The WinNonlin software was used for PK analysis."}, "[3]": {"details": "dose level 4, Japanese cohort (n = 3)"}, "[4]": {"details": "dose level 8, Japanese cohort (n = 3)"}, "[5]": {"details": "dose level 16, Japanese cohort (n = 2)"}, "[6]": {"details": "dose level 160, Japanese cohort (n = 3)"}, "[7]": {"details": "dose level 240, Japanese cohort (n = 5)"}}}
{"smiles": "CC(=O)N1CCN(c2nc3c(N4CCOCC4)nc(-c4cnc(N)nc4)nc3n2CC(F)(F)F)C[C@H]1C", "note": "[DS-7423]", "values": [{"measurement": "Involvement of CYP2C8, CYP3A4, and CYP3A5 in metabolism", "setting": "[1]", "value": "involved in the metabolism"}, {"measurement": "Patients with tumour shrinkage and durable disease control", "setting": "advanced solid tumours", "value": 5}, {"measurement": "Hyperglycaemia (on-target effect)", "setting": "glucose", "value": "observed as early as 4 h after dosing"}, {"measurement": "Akt phosphorylation in platelet-rich plasma", "setting": "Akt phosphorylation", "value": "inhibited compared with that at baseline"}, {"measurement": "Patients with partial metabolic response ([18F]-FDG-PET)", "setting": "tumour [18F]-FDG uptake", "value": 48.5, "unit": "%"}, {"measurement": "Patients with partial metabolic response ([18F]-FDG-PET)", "setting": "tumour [18F]-FDG uptake; of 33 patients", "value": 16}, {"measurement": "Mean AUCtau", "setting": "[2]; [3]", "value": 31.1, "unit": "ng·h/mL"}, {"measurement": "Mean Cmax", "setting": "[2]; [3]", "value": 3, "unit": "ng/mL"}, {"measurement": "T1/2", "setting": "[2]; [3]", "value": "6 to 7", "unit": "h"}, {"measurement": "Tmax", "setting": "[2]; [3]", "value": "2 to 4", "unit": "h"}, {"measurement": "Mean AUCtau", "setting": "[2]; [4]", "value": 84.2, "unit": "ng·h/mL"}, {"measurement": "Mean Cmax", "setting": "[2]; [4]", "value": 10, "unit": "ng/mL"}, {"measurement": "T1/2", "setting": "[2]; [4]", "value": "6 to 7", "unit": "h"}, {"measurement": "Tmax", "setting": "[2]; [4]", "value": "2 to 4", "unit": "h"}, {"measurement": "Mean AUCtau", "setting": "[2]; [5]", "value": 178, "unit": "ng·h/mL"}, {"measurement": "Mean Cmax", "setting": "[2]; [5]", "value": 18, "unit": "ng/mL"}, {"measurement": "T1/2", "setting": "[2]; [5]", "value": "6 to 7", "unit": "h"}, {"measurement": "Tmax", "setting": "[2]; [5]", "value": "2 to 4", "unit": "h"}, {"measurement": "Mean AUCtau", "setting": "[2]; [6]", "value": 1223.3, "unit": "ng·h/mL"}, {"measurement": "Mean Cmax", "setting": "[2]; [6]", "value": 61, "unit": "ng/mL"}, {"measurement": "T1/2", "setting": "[2]; [6]", "value": "6 to 7", "unit": "h"}, {"measurement": "Tmax", "setting": "[2]; [6]", "value": "2 to 4", "unit": "h"}, {"measurement": "Mean AUCtau", "setting": "[2]; [7]", "value": 1184.8, "unit": "ng·h/mL"}, {"measurement": "Mean Cmax", "setting": "[2]; [7]", "value": 83.6, "unit": "ng/mL"}, {"measurement": "T1/2", "setting": "[2]; [7]", "value": 12, "unit": "h"}, {"measurement": "Tmax", "setting": "[2]; [7]", "value": "2 to 4", "unit": "h"}]}
